The structures appear in SMILES notation.

In one assay the target is T1, ABCC11 (Homo sapiens, UniProt Q96J66).
T1 construct: full-length human ABCC11 WT
T1 sequence (Q96J66 whole entry): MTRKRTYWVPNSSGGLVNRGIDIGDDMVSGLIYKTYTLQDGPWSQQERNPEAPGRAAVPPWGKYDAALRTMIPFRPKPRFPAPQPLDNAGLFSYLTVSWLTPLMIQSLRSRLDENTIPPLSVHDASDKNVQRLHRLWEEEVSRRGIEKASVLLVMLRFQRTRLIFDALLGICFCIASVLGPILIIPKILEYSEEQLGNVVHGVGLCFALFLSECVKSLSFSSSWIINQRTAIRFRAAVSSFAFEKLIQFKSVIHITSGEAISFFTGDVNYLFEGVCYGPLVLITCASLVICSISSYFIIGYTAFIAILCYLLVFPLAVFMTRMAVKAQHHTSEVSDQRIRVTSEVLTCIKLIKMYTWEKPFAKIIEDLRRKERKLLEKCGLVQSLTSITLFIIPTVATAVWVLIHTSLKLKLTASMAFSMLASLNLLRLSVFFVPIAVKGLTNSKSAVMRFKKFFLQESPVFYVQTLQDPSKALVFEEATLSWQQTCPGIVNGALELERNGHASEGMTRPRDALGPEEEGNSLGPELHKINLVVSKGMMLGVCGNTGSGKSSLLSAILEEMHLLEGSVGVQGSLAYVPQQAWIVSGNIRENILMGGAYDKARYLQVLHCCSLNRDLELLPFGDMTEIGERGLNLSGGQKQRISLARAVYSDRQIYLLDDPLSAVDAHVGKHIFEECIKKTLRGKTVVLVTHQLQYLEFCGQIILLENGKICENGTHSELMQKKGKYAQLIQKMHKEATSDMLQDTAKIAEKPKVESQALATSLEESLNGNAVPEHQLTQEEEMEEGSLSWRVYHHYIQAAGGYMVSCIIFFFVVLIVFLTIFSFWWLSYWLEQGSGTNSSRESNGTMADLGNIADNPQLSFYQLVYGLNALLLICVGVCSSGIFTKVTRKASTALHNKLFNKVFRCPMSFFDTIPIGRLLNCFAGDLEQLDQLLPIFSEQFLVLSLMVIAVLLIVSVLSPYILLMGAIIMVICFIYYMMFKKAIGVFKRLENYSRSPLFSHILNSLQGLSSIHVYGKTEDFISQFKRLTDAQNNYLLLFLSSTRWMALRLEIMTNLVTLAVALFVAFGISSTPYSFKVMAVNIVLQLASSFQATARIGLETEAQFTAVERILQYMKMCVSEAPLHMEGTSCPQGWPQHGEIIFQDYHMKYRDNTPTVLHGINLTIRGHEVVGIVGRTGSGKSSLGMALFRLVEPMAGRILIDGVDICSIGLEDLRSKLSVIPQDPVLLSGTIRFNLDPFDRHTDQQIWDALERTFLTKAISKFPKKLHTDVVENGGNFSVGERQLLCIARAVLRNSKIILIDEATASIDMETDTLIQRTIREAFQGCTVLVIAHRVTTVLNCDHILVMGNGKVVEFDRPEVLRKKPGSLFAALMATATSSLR
The assay is described as follows: inhibition of ATP-dependent [3H]-DHEA-S transport in plasma membrane vesicles from ABCC11-expressing […] cells. The assay is classed as biochemical.
Settings: not given
For the compound `O=c1c(-c2ccc(O)cc2)coc2cc(O)cc(O)c12` [genistein], the IC50 was found to be 61.5 µM. That is a double-digit micromolar value.

A further assay concerns the target T1, ABCC11. The assay is described as follows: cell-based. As to conditions: read-out: ABCC11-Mediated DHEA-S Transport (% of Control).
For the compound `O=c1cc(-c2ccc(O)c(O)c2)oc2cc(O)cc(O)c12` [compound 4, luteolin], the remaining activity at 100 µM was found to be 0%.
The same measure, in the same setting: for `COc1ccc(-c2cc(=O)c3c(OC)c(OC)c(OC)c(OC)c3o2)cc1OC` [compound 5, nobiletin] the value was 0%; for `O=c1c(O)c(-c2ccc(O)c(O)c2)oc2cc(O)c(O)c(O)c12` [compound 16, quercetagetin], 0%.
Same read-out and setting: for `O=C(/C=C/c1ccc(O)cc1)c1c(O)cc(O)cc1O` [compound 19, naringenin chalcone] the value was 12.4 ± 4.2%; for `O=C(CCc1ccc(O)cc1)c1c(O)cc(O)cc1O` [compound 20, phloretin], 0.6 ± 3.9%; for `O=C(O[C@@H]1Cc2c(O)cc(O)cc2O[C@H]1c1ccc(O)c(O)c1)c1cc(O)c(O)c(O)c1` [compound 23, (−)-catechin gallate], 10.5 ± 6%.

The target in another assay is T1, ABCC11. The assay is described as follows: biochemical. Further details: Vesicle transport assay: ATP-dependent uptake of radiolabeled DHEA-S into ABCC11-expressing membrane vesicles, rapid filtration, scintillation counting. As to conditions: ABCC11-mediated DHEA-S transport, % of control, 5 min, 37 °C. The text has this:
The inhibitory effects of the various target extracts and compounds on the ABCC11 function were examined using the in vitro vesicle transport assay, a well-established method to quantitatively evaluate ABC transporter function. For this purpose, the ATP-dependent transport of [1,2,6,7-^3H(N)]-dehydroepiandrosterone sulfate (DHEA-S) (PerkinElmer, Waltham, MA, USA), which is an ABCC11 substrate, into the ABCC11-expressing and control plasma membrane vesicles was quantified following our previous study with some minor modifications in the rapid filtration technique, as described below. In brief, the plasma membrane vesicles (0.25 mg/mL or indicated concentrations) were incubated with [1,2,6,7-^3H(N)]-DHEA-S (100 nM or indicated concentrations) in a reaction mixture (total 20 μL: 10 mM Tris/HCl, 250 mM sucrose, 10 mM MgCl2, 10 mM creatine phosphate, 1 mg/mL creatine phosphokinase, 50 mM ATP or AMP as a substitute of ATP, and pH 7.4) for 5 min at 37 °C, either without (i.e., with only vehicle control) or with the individual target fractions/authentic chemicals at the indicated concentrations. As the vehicle control, 1% water was used for plant extracts; 1% methanol (Nacalai Tesque) or 1% dimethyl sulfoxide (DMSO; Nacalai Tesque) was used for the individual target fractions, as described below. Since stock solutions of authentic chemicals were prepared with DMSO at 10 mM, 1% DMSO was employed as the vehicle control for them. After incubation, the reaction mixture was mixed with 980 μL of an ice-cold stop buffer (2 mM EDTA, 0.25 M sucrose, 0.1 M NaCl, 10 mM Tris-HCl, and pH 7.4) and rapidly filtered on a membrane filter (MF-Millipore Membrane (HAWP02500; Millipore, Tokyo, Japan) for extract screening or Whatman™ Grade GF/F Glass Microfiber Filter Paper (GE Healthcare) for the other experiments). After washing with 5 mL of the ice-cold stop buffer three times, the plasma membrane vesicles trapped on the membrane filter were dissolved in Clear-sol II (Nacalai Tesque). Then, the radioactivity incorporated into the plasma membrane vesicles was measured with a liquid scintillator (Tri-Carb 3110TR; PerkinElmer). The transport activity in each group was calculated as the incorporated clearance (μL/mg protein/min = incorporated level of DHEA-S (disintegrations per minute (DPM)/mg protein/min)/DHEA-S level in the incubation mixture (DPM/μL)). ATP-dependent DHEA-S transport was calculated by the difference in transport activity with and without ATP. Similarly, ABCC11-mediated DHEA-S transport activity was calculated by subtracting the ATP-dependent DHEA-S transport activity of control plasma membrane vesicles from that of ABCC11-expressing ones. Unless otherwise indicated, effects of the target fractions/compounds on the ATP-dependent DHEA-S transport activity were also examined for the control plasma membrane vesicles.
`O=c1c(O)c(-c2ccccc2)oc2ccccc12` [3-Hydroxyflavone] displayed a remaining activity at 100 µM of 91.7 ± 1.1%.
The same measure, in the same setting: for `Oc1cc(O)c2c(c1)O[C@H](c1ccc(O)c(O)c1)[C@@H](O)C2` [(+)-Catechin] the value was 91.9 ± 5.9%; for `Oc1cc(O)c2c(c1)O[C@H](c1cc(O)c(O)c(O)c1)[C@@H](O)C2` [(+)-Gallocatechin], 87.6 ± 27.6%.
`Oc1cc(O)c2c(c1)O[C@H](c1ccc(O)c(O)c1)[C@H](O)C2` [(−)-Epicatechin]: the remaining activity at 100 µM was 85.2 ± 24.4%.
In turn, `O=C(O[C@@H]1Cc2c(O)cc(O)cc2O[C@@H]1c1cc(O)c(O)c(O)c1)c1cc(O)c(O)c(O)c1` [(−)-Epigallocatechin gallate] returned a remaining activity at 100 µM of 37.5 ± 7%.
Same read-out and setting: the figure for `Oc1cc(O)c2c(c1)O[C@H](c1cc(O)c(O)c(O)c1)[C@H](O)C2` [(−)-Epigallocatechin] is 83.6 ± 29%; for `O=C(O[C@@H]1Cc2c(O)cc(O)cc2O[C@H]1c1cc(O)c(O)c(O)c1)c1cc(O)c(O)c(O)c1` [(−)-Gallocatechin gallate] it is 24 ± 2.5%.
Same read-out and setting: for `O=c1cc(-c2ccc(O)cc2)oc2cc(O)cc(O)c12` [Apigenin] the value was 25.3 ± 12.5%.
Same read-out and setting: the figure for `COc1cc(O)cc(O)c1C(=O)/C=C/c1ccccc1` [Cardamonin] is 73.4 ± 10.8%.
`O=C1c2c(O)cc(O)cc2O[C@H](c2cc(O)c(O)c(O)c2)[C@H]1O` [Dihydromyricetin] yielded a remaining activity at 100 µM of 56.9 ± 23.4%.
The same measure, in the same setting: for `O=c1c(O)c(-c2ccc(O)c(O)c2)oc2cc(O)ccc12` [Fisetin] the value was 37.7 ± 1%; for `O=c1c(O)c(-c2ccccc2)oc2cc(O)cc(O)c12` [Galangin], 63.6 ± 5.9%.
The same measure, in the same setting: the figure for `O=c1c(O)c(-c2ccc(O)c(O)c2)oc2c(O)c(O)cc(O)c12` [Gossypetin] is 46 ± 8.4%; for `COc1ccc([C@@H]2CC(=O)c3c(O)cc(O)cc3O2)cc1O` [Hesperetin] it is 5.2 ± 26.9%.
Consider `O=c1c(O)c(-c2ccc(O)cc2)oc2cc(O)cc(O)c12` [Kaempferol], for which the remaining activity at 100 µM is 42.8 ± 1%.
Still for that read-out and setting: for `O=c1c(O)c(-c2ccc(O)cc2O)oc2cc(O)cc(O)c12` [Morin] the value was 41.5 ± 3.4%; for `O=C1C[C@@H](c2ccc(O)cc2)Oc2cc(O)cc(O)c21` [Naringenin], 38.4 ± 31.6%.
Same read-out and setting: the figure for `O=c1c(O)c(-c2ccc(O)c(O)c2)oc2cc(O)cc(O)c12` [Quercetin] is 34.6 ± 18.3%; for `O=C1c2c(O)cc(O)cc2O[C@H](c2ccc(O)c(O)c2)[C@H]1O` [Taxifolin] it is 43.2 ± 26%.
`COc1cc(O)c(CC=C(C)C)c(O)c1C(=O)/C=C/c1ccc(O)cc1` [Xanthohumol] showed a remaining activity at 100 µM of 19.7 ± 13.6%.

Values taken from paper PMC7468911 (Nutrients, 2020).
